In paper PMC5564600 (Oncotarget, 2017):

Experiments:
Assay in all cases: biochemical
Assay type in all cases: binding
panel of 442 kinases [1] = molecular target: T1, panel of 442 kinases (Homo sapiens, UniProt Q12866); settings: kinase MERTK; for remaining activity at 1 µM: read-out: % of control at 1 µM
T1 construct: purchased Ambit Biosciences (scanMAXX KINOMEscan)
T1 sequence (Q12866 21-999): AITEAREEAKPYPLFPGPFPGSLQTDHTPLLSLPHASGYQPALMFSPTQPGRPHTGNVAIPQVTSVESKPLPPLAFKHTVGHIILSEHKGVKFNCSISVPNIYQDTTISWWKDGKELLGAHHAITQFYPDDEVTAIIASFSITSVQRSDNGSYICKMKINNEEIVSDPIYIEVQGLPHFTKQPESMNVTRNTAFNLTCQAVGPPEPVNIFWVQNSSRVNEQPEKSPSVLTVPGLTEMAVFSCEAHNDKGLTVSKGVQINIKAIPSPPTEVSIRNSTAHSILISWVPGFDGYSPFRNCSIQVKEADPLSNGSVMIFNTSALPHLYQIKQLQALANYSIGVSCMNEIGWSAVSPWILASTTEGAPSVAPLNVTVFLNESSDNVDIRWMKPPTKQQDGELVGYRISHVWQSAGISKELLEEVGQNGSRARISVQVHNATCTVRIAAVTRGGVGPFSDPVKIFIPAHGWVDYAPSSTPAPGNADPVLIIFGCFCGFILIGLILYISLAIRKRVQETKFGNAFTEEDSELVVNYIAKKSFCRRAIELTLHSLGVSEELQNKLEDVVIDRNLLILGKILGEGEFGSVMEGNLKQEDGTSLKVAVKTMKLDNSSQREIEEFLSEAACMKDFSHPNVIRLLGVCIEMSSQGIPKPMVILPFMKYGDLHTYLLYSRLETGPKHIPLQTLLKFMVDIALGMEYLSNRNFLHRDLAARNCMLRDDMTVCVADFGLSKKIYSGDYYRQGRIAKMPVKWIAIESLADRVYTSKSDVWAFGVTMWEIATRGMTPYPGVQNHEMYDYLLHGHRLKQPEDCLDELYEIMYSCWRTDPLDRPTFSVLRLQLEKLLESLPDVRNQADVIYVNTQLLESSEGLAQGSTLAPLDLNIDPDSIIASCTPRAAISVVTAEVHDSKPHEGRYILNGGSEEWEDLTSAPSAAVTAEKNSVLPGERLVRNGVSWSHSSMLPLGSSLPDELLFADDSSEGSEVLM

panel of 442 kinases [2] = molecular target: T2, panel of 442 kinases (Homo sapiens, UniProt Q15831); settings: kinase LKB1; for remaining activity at 1 µM: read-out: % of control at 1 µM
T2 construct: purchased Ambit Biosciences (scanMAXX KINOMEscan)
T2 sequence (Q15831 1-433): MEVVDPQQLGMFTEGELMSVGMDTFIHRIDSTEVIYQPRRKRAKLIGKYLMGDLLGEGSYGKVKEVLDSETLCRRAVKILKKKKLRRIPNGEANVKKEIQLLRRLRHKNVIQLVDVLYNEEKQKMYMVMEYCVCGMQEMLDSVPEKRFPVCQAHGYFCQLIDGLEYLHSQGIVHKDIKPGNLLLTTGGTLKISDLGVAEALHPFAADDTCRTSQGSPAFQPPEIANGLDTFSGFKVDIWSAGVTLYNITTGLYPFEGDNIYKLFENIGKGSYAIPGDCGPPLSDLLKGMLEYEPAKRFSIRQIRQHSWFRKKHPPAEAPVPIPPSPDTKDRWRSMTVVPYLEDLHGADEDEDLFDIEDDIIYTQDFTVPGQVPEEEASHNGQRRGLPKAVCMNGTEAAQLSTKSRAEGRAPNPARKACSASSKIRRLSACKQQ

panel of 442 kinases [3] = molecular target: T3, panel of 442 kinases (Homo sapiens, UniProt P54760); settings: EPHB4; for remaining activity at 1 µM: read-out: % of control at 1 µM
T3 construct: purchased Ambit Biosciences (scanMAXX KINOMEscan)
T3 sequence (P54760 16-987): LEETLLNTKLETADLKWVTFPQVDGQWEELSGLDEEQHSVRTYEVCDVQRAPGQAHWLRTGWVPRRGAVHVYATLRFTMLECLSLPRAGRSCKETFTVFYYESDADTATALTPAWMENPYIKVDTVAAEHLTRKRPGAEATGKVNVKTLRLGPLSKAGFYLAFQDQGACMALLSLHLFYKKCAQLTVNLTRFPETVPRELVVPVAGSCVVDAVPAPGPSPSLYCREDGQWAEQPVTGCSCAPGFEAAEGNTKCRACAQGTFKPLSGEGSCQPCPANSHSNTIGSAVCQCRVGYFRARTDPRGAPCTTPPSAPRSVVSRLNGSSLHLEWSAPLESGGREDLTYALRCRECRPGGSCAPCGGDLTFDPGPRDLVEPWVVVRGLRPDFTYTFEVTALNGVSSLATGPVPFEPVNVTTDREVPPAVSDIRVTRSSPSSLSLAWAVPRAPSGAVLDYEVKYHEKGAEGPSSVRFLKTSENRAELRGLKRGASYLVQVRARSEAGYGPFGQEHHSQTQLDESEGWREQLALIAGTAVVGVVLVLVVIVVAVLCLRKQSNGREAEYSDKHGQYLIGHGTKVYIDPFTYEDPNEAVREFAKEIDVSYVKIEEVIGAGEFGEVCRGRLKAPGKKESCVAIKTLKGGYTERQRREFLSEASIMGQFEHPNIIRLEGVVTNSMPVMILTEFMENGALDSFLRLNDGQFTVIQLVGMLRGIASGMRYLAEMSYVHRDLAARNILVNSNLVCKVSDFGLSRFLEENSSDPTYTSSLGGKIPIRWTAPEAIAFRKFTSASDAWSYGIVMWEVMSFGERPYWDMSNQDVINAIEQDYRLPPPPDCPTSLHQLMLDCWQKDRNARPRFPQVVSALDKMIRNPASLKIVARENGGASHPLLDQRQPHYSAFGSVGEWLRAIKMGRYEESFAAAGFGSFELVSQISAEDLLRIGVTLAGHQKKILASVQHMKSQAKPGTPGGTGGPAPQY

panel of 442 kinases [4] = molecular target: T4, panel of 442 kinases (Homo sapiens, UniProt P16234); settings: kinase PDGFRA; for remaining activity at 1 µM: read-out: % of control at 1 µM
T4 construct: purchased Ambit Biosciences (scanMAXX KINOMEscan)
T4 sequence (P16234 24-1089): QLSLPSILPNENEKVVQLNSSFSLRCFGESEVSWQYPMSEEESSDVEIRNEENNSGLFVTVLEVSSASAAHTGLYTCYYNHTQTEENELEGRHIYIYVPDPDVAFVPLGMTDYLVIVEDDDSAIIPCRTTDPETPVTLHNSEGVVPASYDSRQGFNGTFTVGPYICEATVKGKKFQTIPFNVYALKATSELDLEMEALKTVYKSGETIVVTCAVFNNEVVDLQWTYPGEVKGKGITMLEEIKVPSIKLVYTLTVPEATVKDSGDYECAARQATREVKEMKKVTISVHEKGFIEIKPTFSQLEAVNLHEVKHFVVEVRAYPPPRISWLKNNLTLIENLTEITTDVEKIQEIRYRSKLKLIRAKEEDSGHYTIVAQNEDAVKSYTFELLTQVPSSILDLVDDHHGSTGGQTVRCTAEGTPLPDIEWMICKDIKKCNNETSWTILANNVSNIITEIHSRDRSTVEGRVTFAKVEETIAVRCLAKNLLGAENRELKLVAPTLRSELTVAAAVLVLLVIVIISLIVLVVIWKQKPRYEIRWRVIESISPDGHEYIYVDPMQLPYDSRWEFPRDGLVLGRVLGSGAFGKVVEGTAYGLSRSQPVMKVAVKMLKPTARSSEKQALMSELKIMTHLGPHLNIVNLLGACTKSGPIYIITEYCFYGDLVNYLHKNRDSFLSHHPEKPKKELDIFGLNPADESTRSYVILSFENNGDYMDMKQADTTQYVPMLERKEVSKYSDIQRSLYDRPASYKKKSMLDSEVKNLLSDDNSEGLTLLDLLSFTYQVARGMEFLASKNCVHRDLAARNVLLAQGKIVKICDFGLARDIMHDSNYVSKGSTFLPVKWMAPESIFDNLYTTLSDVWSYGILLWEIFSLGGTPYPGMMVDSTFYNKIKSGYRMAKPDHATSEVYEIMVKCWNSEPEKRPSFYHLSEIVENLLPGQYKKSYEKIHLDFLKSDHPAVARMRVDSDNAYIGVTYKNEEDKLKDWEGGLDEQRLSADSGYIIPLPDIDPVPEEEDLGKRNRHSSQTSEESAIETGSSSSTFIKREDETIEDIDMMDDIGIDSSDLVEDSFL

panel of 442 kinases [5] = molecular target: T5, panel of 442 kinases (Homo sapiens, UniProt P49761); settings: CLK3; for remaining activity at 1 µM: read-out: % of control at 1 µM
T5 construct: purchased Ambit Biosciences (scanMAXX KINOMEscan)
T5 sequence (P49761 whole entry): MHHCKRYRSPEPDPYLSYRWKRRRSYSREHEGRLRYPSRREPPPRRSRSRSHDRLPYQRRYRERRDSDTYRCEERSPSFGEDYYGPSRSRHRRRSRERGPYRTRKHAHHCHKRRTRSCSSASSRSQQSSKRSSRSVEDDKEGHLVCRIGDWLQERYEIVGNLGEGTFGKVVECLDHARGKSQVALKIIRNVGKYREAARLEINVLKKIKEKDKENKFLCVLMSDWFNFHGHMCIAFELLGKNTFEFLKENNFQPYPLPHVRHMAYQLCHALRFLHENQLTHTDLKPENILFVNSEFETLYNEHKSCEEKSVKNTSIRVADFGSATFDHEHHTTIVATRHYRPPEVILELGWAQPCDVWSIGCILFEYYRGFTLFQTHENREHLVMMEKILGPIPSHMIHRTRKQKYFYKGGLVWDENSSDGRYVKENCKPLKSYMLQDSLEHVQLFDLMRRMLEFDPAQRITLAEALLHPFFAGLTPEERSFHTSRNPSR

panel of 442 kinases [6] = molecular target: T6, panel of 442 kinases (Homo sapiens, UniProt Q9UKE5); settings: kinase TNIK; for remaining activity at 1 µM: read-out: TNIK (% of control at 1 µM)
T6 construct: purchased Ambit Biosciences (scanMAXX KINOMEscan)
T6 sequence (Q9UKE5 whole entry): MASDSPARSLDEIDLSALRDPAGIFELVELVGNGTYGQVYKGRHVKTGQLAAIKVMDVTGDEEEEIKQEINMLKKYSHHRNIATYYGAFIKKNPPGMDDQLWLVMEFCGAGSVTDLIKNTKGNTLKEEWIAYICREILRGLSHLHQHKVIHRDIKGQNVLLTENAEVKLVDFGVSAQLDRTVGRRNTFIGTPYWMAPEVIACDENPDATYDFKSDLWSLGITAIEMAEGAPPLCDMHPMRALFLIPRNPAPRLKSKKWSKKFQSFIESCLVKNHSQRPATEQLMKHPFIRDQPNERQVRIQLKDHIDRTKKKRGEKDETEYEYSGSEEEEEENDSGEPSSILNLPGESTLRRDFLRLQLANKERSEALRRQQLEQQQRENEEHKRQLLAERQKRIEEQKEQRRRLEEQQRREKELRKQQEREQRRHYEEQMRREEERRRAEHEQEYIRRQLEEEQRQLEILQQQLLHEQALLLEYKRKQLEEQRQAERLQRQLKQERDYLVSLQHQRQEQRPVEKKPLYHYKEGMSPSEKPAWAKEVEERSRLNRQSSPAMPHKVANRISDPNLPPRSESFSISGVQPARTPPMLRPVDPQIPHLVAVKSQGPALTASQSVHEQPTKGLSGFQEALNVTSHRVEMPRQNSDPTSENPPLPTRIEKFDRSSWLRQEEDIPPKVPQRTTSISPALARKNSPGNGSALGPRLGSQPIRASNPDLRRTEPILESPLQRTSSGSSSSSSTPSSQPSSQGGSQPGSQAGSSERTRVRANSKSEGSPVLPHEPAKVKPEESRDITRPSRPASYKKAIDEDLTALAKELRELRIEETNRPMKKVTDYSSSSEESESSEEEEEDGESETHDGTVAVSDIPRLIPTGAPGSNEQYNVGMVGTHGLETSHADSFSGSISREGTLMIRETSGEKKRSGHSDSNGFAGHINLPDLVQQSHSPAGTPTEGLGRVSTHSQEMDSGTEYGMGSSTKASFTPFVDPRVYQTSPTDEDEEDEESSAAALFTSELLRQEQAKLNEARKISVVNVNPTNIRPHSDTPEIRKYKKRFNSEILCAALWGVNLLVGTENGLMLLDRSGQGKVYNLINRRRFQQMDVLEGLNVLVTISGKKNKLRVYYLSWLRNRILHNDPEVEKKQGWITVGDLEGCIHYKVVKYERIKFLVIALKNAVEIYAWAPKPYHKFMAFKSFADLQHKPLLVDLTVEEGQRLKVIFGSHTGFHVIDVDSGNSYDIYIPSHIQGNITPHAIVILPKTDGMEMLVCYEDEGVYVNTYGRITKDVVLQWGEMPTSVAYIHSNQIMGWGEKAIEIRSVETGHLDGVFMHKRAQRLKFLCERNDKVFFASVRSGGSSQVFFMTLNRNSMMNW

[7] = 10 µM, read-out: % of control at 10 µM

SMILES	remaining activity at 1 µM (panel of 442 kinases [1])	remaining activity at 10 µM (panel of 442 kinases [1]; [7])	remaining activity at 1 µM (panel of 442 kinases [2])	remaining activity at 10 µM (panel of 442 kinases [2]; [7])	remaining activity at 1 µM (panel of 442 kinases [3])	remaining activity at 10 µM (panel of 442 kinases [3]; [7])	remaining activity at 1 µM (panel of 442 kinases [4])	remaining activity at 10 µM (panel of 442 kinases [4]; [7])	remaining activity at 1 µM (panel of 442 kinases [5])	remaining activity at 10 µM (panel of 442 kinases [5]; [7])	remaining activity at 1 µM (panel of 442 kinases [6])	remaining activity at 10 µM (panel of 442 kinases [6]; 10 µM, read-out: TNIK (% of control at 10 µM))
Nc1cc(C(F)(F)F)c(-c2cc(N3CCOCC3)nc(N3CCOCC3)n2)cn1 [Buparlisib]	98%	95%	100%	99%	100%	100%	100%	100%	100%	94%	100%	100%
COc1ncc(-c2ccc3nccc(-c4ccnnc4)c3c2)cc1NS(=O)(=O)c1ccc(F)cc1F [Omipalisib]	100%		100%		100%		100%		93%		100%	
FC(F)c1nc2ccccc2n1-c1nc(N2CCOCC2)nc(N2CCOCC2)n1 [ZSTK474, 2-(difluoromethyl)-1-[4,6-di(4-morpholinyl)-1,3,5-triazin-2-yl]-1H-benzimidazole]	84%		100%		92%		85%		100%		100%	
Cn1c(=O)n(-c2ccc(C(C)(C)C#N)cc2)c2c3cc(-c4cnc5ccccc5c4)ccc3ncc21 [Dactolisib, 2-methyl-2-[4-(3-methyl-2-oxo-8-quinolin-3-yl-2,3-dihydroimidazo[4,5-c]quinolin-1-yl)-phenyl] propionitrile]	80%		93%		97%		100%		50%			
